Test results reported in PubChem BioAssay AID256 (DTP/NCI, 2004).
Toxic doses and inconclusive results are not listed. The calls were made as follows: active = survival T/C of 150% or more; inactive = T/C below 125% in these data.

System: CD2F1 mice, L1210 leukemia ip, survival T/C
Experiment: NCI In Vivo Anticancer Drug Screen. Data for tumor model L1210 Leukemia (intraperitoneal) in CD2F1 (CDF1) mice
Settings: higher = longer survival
Method in brief: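 Tumor-bearing mice (transplanted tumor) were split into treated and vehicle control groups, and the measured endpoint of each treated group was divided by that of its vehicle controls.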

[1] = endpoint: mean survival time, dose: 100.0 mg/kg/injection, schedule: Q01DX001 (ip), vehicle: saline
[2] = endpoint: mean survival time, dose: 200.0 mg/kg/injection, schedule: Q01DX001 (ip), vehicle: saline
[3] = endpoint: mean survival time, dose: 400.0 mg/kg/injection, schedule: Q01DX001 (ip), vehicle: saline
[4] = endpoint: mean survival time, dose: 100.0 mg/kg/injection, schedule: Q01DX001 (ip), vehicle: saline with Tween-80
[5] = endpoint: mean survival time, dose: 200.0 mg/kg/injection, schedule: Q01DX001 (ip), vehicle: saline with Tween-80
[6] = endpoint: mean survival time, dose: 100.0 mg/kg/injection, schedule: Q04DX003 (ip), vehicle: saline with Tween-80
[7] = endpoint: mean survival time, dose: 200.0 mg/kg/injection, schedule: Q04DX003 (ip), vehicle: saline with Tween-80
[8] = endpoint: mean survival time, dose: 400.0 mg/kg/injection, schedule: Q04DX003 (ip), vehicle: saline with Tween-80
[9] = endpoint: mean survival time, dose: 100.0 mg/kg/injection, schedule: Q04DX002 (ip), vehicle: saline with Tween-80
[10] = endpoint: mean survival time, dose: 200.0 mg/kg/injection, schedule: Q04DX002 (ip), vehicle: saline with Tween-80
[11] = endpoint: mean survival time, dose: 400.0 mg/kg/injection, schedule: Q01DX001 (ip), vehicle: saline with Tween-80
[12] = endpoint: mean survival time, dose: 400.0 mg/kg/injection, schedule: Q04DX002 (ip), vehicle: saline with Tween-80
[13] = endpoint: mean survival time, dose: 50.0 mg/kg/injection, schedule: Q01DX009 (ip), vehicle: saline with Tween-80
[14] = endpoint: mean survival time, dose: 100.0 mg/kg/injection, schedule: Q01DX009 (ip), vehicle: saline with Tween-80
[15] = endpoint: mean survival time, dose: 200.0 mg/kg/injection, schedule: Q01DX009 (ip), vehicle: saline with Tween-80
[16] = endpoint: mean survival time, dose: 100.0 mg/kg/injection, schedule: Q04DX003 (ip), vehicle: saline
[17] = endpoint: mean survival time, dose: 200.0 mg/kg/injection, schedule: Q04DX003 (ip), vehicle: saline
[18] = endpoint: mean survival time, dose: 50.0 mg/kg/injection, schedule: Q04DX003 (ip), vehicle: saline
[19] = endpoint: mean survival time, dose: 400.0 mg/kg/injection, schedule: Q01DX009 (ip), vehicle: saline with Tween-80

Measured: T/C

CC(C)(C)c1cc(C=C(C#N)C#N)cc(C(C)(C)C)c1O
inactive: endpoint: mean survival time, dose: 100.0 mg/kg/injection, schedule: Q01DX001 (ip), vehicle: Klucel (hydroxypropylcellulose) (HPC) 87 % of control | endpoint: mean survival time, dose: 200.0 mg/kg/injection, schedule: Q01DX001 (ip), vehicle: Klucel (hydroxypropylcellulose) (HPC) 102 % of control | endpoint: mean survival time, dose: 400.0 mg/kg/injection, schedule: Q01DX001 (ip), vehicle: Klucel (hydroxypropylcellulose) (HPC) 87 % of control

CC(C)c1ccc(N=Nc2ccc(C(C)C)cc2)cc1
inactive: [1] 101 % of control | [2] 97 % of control | [3] 93 % of control

Cc1ccc(S(=O)(=O)CCCCl)cc1
inactive: endpoint: mean survival time, dose: 50.0 mg/kg/injection, schedule: Q01DX009 (ip), vehicle: Klucel (hydroxypropylcellulose) (HPC) 111 % of control | endpoint: mean survival time, dose: 100.0 mg/kg/injection, schedule: Q01DX009 (ip), vehicle: Klucel (hydroxypropylcellulose) (HPC) 95 % of control | endpoint: mean survival time, dose: 200.0 mg/kg/injection, schedule: Q01DX009 (ip), vehicle: Klucel (hydroxypropylcellulose) (HPC) 100 % of control

C/C(Cl)=C\CNc1ncnc2c1ncn2C1OC(CO)C(O)C1O (stereo not given)
inactive: endpoint: mean survival time, dose: 6.25 mg/kg/injection, schedule: Q01DX005 (ip), vehicle: distilled water + Tween-80 103 % of control | endpoint: mean survival time, dose: 12.5 mg/kg/injection, schedule: Q01DX005 (ip), vehicle: distilled water + Tween-80 101 % of control | endpoint: mean survival time, dose: 25.0 mg/kg/injection, schedule: Q01DX005 (ip), vehicle: distilled water + Tween-80 91 % of control | endpoint: mean survival time, dose: 50.0 mg/kg/injection, schedule: Q01DX005 (ip), vehicle: distilled water + Tween-80 100 % of control | endpoint: mean survival time, dose: 100.0 mg/kg/injection, schedule: Q01DX005 (ip), vehicle: distilled water + Tween-80 101 % of control

O=P(OCCCCCl)(OCCCCCl)C(Cl)Cl
inactive: [1] 100 % of control | [2] 100 % of control | [3] 108 % of control

CCCCP(=O)(O)O
inactive: [4] 92 % of control | [5] 100 % of control

CC1CC2(C)C(CC1=O)CC(C)C1C3CCC(O)C3(C)CCC12 (stereo not given)
inactive: [6] 97 % of control | [7] 92 % of control | [8] 95 % of control

COc1ccc(CCNC(=O)Cc2ccc3c(c2)OCO3)cc1OC
inactive: [4] 92 % of control | [9] 87 % of control | [5] 93 % of control | [10] 97 % of control | [11] 94 % of control | [12] 93 % of control

CC(=O)Nc1ccc(S(=O)(=O)F)cc1
inactive: [13] 93 % of control | [4] 91 % of control | [14] 93 % of control | [6] 94 % of control | [5] 100 % of control | [7] 102 % of control

CC(=O)NC(Cc1cc(I)c(OC(C)=O)c(I)c1)C(=O)O (stereo not given)
inactive: [13] 93 % of control | endpoint: mean survival time, dose: 50.0 mg/kg/injection, schedule: Q04DX003 (ip), vehicle: saline with Tween-80 101 % of control | [14] 93 % of control | [6] 95 % of control | [15] 93 % of control | [7] 97 % of control

C=CC1(O)CC2CCC1C2 (stereo not given)
inactive: [6] 106 % of control | [7] 93 % of control | [8] 101 % of control

Nc1cc(=O)c2cn[nH]c2[nH]1
inactive: endpoint: mean survival time, dose: 12.5 mg/kg/injection, schedule: Q01DX005 (ip), vehicle: other 98 % of control | endpoint: mean survival time, dose: 25.0 mg/kg/injection, schedule: Q01DX005 (ip), vehicle: other 102 % of control | endpoint: mean survival time, dose: 50.0 mg/kg/injection, schedule: Q01DX005 (ip), vehicle: other 102 % of control | endpoint: mean survival time, dose: 100.0 mg/kg/injection, schedule: Q01DX005 (ip), vehicle: other 95 % of control

O=C(C1CO1)C(Cl)(Cl)Cl (stereo not given)
inactive: endpoint: median survival time, dose: 12.0 mg/kg/injection, schedule: Q01DX009 (ip), vehicle: saline 111 % of control | endpoint: median survival time, dose: 25.0 mg/kg/injection, schedule: Q01DX009 (ip), vehicle: saline 108 % of control | endpoint: median survival time, dose: 50.0 mg/kg/injection, schedule: Q01DX009 (ip), vehicle: saline 117 % of control

CC[S-].CC[S-].[Ni+2]
inactive: endpoint: mean survival time, dose: 5.0 mg/kg/injection, schedule: Q01DX001 (ip), vehicle: saline 103 % of control | endpoint: mean survival time, dose: 10.0 mg/kg/injection, schedule: Q01DX001 (ip), vehicle: saline 103 % of control | endpoint: mean survival time, dose: 20.0 mg/kg/injection, schedule: Q01DX001 (ip), vehicle: saline 103 % of control

O=c1cc(NCCCCOc2ccccc2)[nH]c(=O)[nH]1
inactive: [4] 96 % of control | [5] 93 % of control | [11] 96 % of control

O=C(O)CC(CC(=O)O)C(=O)O
inactive: [16] 101 % of control | [17] 103 % of control | endpoint: mean survival time, dose: 400.0 mg/kg/injection, schedule: Q04DX003 (ip), vehicle: saline 101 % of control

CCC(C)CC(=O)Nc1cccc(O)c1 (stereo not given)
inactive: [6] 96 % of control | [7] 96 % of control | [8] 91 % of control

CCc1cc[c]([Sb](=[O])([OH])[OH])cc1
inactive: [18] 89 % of control | [16] 101 % of control | [17] 101 % of control

Cc1cccc(/C=N\OCCc2ccccc2)n1
inactive: [14] 94 % of control | [6] 100 % of control | [15] 98 % of control | [7] 96 % of control | [19] 93 % of control | [8] 91 % of control

CCCOC(=O)c1cncn1C(C)c1ccccc1 (stereo not given)
inactive: [1] 102 % of control

CCCN1C(=O)C2C3CCC(O3)C2C1=O (stereo not given)
inactive: [9] 95 % of control | [10] 106 % of control | [12] 102 % of control

Cc1cccc(NC(N)=S)n1
inactive: endpoint: mean survival time, dose: 12.5 mg/kg/injection, schedule: Q01DX009 (ip), vehicle: other 103 % of control | endpoint: mean survival time, dose: 25.0 mg/kg/injection, schedule: Q01DX009 (ip), vehicle: other 107 % of control | endpoint: mean survival time, dose: 50.0 mg/kg/injection, schedule: Q01DX009 (ip), vehicle: other 107 % of control | endpoint: mean survival time, dose: 100.0 mg/kg/injection, schedule: Q01DX009 (ip), vehicle: other 91 % of control | endpoint: mean survival time, dose: 200.0 mg/kg/injection, schedule: Q01DX009 (ip), vehicle: other 111 % of control

Cc1ccc(C)c(C(=O)c2ccccc2C(N)=O)c1
inactive: [13] 94 % of control | [14] 92 % of control | [15] 88 % of control

CCCCCCCCSC#N
inactive: endpoint: mean survival time, dose: 50.0 mg/kg/injection, schedule: Q01DX001 (ip), vehicle: carboxymethylcellulose (CMC) 100 % of control

COC(=O)c1ccc(C)c(O)c1[N+](=O)[O-]
inactive: [14] 100 % of control | [15] 96 % of control | [19] 101 % of control

Cc1ccc(S(=O)(=O)NCC(Br)CBr)cc1 (stereo not given)
inactive: [14] 93 % of control | [6] 100 % of control | [15] 93 % of control | [7] 98 % of control | [19] 96 % of control | [8] 100 % of control

NC(=S)N/N=C/c1nccn1-c1cccc([N+](=O)[O-])c1
inactive: endpoint: mean survival time, dose: 25.0 mg/kg/injection, schedule: Q04DX002 (ip), vehicle: Klucel (hydroxypropylcellulose) (HPC) 101 % of control | endpoint: mean survival time, dose: 50.0 mg/kg/injection, schedule: Q04DX002 (ip), vehicle: Klucel (hydroxypropylcellulose) (HPC) 96 % of control | endpoint: mean survival time, dose: 100.0 mg/kg/injection, schedule: Q04DX002 (ip), vehicle: Klucel (hydroxypropylcellulose) (HPC) 104 % of control

O=S(=O)(OCC(COS(=O)(=O)c1ccccc1)(COS(=O)(=O)c1ccccc1)COS(=O)(=O)c1ccccc1)c1ccccc1
inactive: [13] 96 % of control | [14] 97 % of control | [6] 86 % of control | [15] 95 % of control | [7] 89 % of control

ClC(Cl)(Cl)C1=NCc2nnn(Cc3ccccc3)c2N1
inactive: endpoint: mean survival time, dose: 12.5 mg/kg/injection, schedule: Q01DX009 (ip), vehicle: saline with Tween-80 100 % of control | endpoint: mean survival time, dose: 25.0 mg/kg/injection, schedule: Q01DX009 (ip), vehicle: saline with Tween-80 92 % of control | [13] 105 % of control | [14] 100 % of control | [15] 107 % of control | [19] 94 % of control

c1ccc(C2COCC2c2ccccc2)cc1 (stereo not given)
inactive: [4] 86 % of control | [5] 92 % of control | [11] 93 % of control

O=c1oc(/C=C/c2ccccc2)nc2ccccc12
inactive: [9] 100 % of control | [10] 100 % of control | [12] 103 % of control

Cc1cccc[n+]1C
inactive: endpoint: mean survival time, dose: 12.5 mg/kg/injection, schedule: Q04DX003 (ip), vehicle: saline 102 % of control | endpoint: mean survival time, dose: 25.0 mg/kg/injection, schedule: Q04DX003 (ip), vehicle: saline 104 % of control | [18] 100 % of control

C#CC(=O)c1ccccc1
inactive: endpoint: mean survival time, dose: 9.4 mg/kg/injection, schedule: Q04DX003 (ip), vehicle: saline 93 % of control

O=C1C2C3CCC(O3)C2C(=O)N1CC#CCN1C(=O)C2C3CCC(O3)C2C1=O (stereo not given)
inactive: [9] 98 % of control | [10] 98 % of control | [12] 90 % of control
